Here are results for 5 molecules from PMC5792431 (Scientific Reports, 2018).

Converted amounts (≈) assume the structure as drawn. Read-outs that look alike come from different tables or passages of the source.

In series [1] the test system is rRVFVΔNSs::Katushka. Nature of the series: microbe, parasite or virus in culture. In kind it is cell-based, Rift Valley fever virus. The following applies: for EC50: read-out: EC50, inhibition of fluorescent cell foci.
For series [2] the following is noted: human, microsomes, pH 7.4.
The nature of series [3]: in vitro. The following applies: both, human, plasma, pH 7.4.
Series [4] in a line: in vitro. The note with it: human, hepatocytes.
Series [5] is described as follows: in vitro. The note with it: human, Caco-2, pH 7.4.
For series [6] the following is noted: human.
Series [7] in a line: physchem. The note with it: pH 7.4.
Series [8] in a line: in vitro. The note with it: human, microsomes, pH 7.4.
Series [9] is described as follows: physchem. The following applies: 37 °C, pH 7.4, aqueous buffer, thermodynamic from solid.
For series [10] the following is noted: mouse, in vivo.
Series [11] can be described thus: physchem. The note with it: plasma or biological fluid.
For series [12] the following is noted: female, BALB/C, mouse, in vivo.
For series [13] the following is noted: mouse, microsomes, pH 7.4.
Series [14] deals with A549 cells. The note with it: cited from earlier work.
Series [15] has as its system RVFV virions. It is filed as cell-based, Rift Valley fever virus.
Series [16] can be described thus: in vitro. The following applies: mouse, microsomes, pH 7.4.
A short description of series [17]: in vitro. The following applies: mouse, plasma, pH 7.4.
The nature of series [18]: in vivo. The note with it: female, BALB/C, mouse.
Series [19] has as its system rRVFVΔNSs::Katushka. Nature of the series: microbe, parasite or virus in culture. It is filed as cell-based, Rift Valley fever virus.
Series [20] relates to rRVFVΔNSs::Katushka. Nature of the series: microbe, parasite or virus in culture. The note with it: Rift Valley fever virus, A549, 16 h, read-out: EC50, inhibition of RVFV RNA expression (qPCR). In kind it is cell-based.
In series [21] the test system is rRVFVΔNSs::Katushka. It is filed as cell-based, Rift Valley fever virus.
The mark [22] stands for this setting: Rift Valley fever virus, A549, 16 h.

On to `CC(C)(C)C(=O)Nc1ccccc1C(=O)Nc1ccccc1C(=O)O` [17d], for which the “EC50, inhibition of fluorescent cell foci” value in [1] is “out of range”.

On to `O=C(O)c1ccccc1NC(=O)c1ccccc1NC(=O)C1CCCCC1` [17e], for which, in series [1], the “EC50, inhibition of fluorescent cell foci” value is “out of range”.

With `O=C(Nc1cc(Cl)ccc1C(=O)Nc1ccccc1C(=O)O)c1ccccc1F` [35f], the EC50 in [1] (setting [22]) was 4.5 µM; in series [1], 4.6 µM.

With `O=C(Nc1ccccc1C(=O)Nc1ccccc1C(=O)O)c1ccccc1` [Benzavir-1, 2-{[2-(benzoylamino)benzoyl]amino}-benzoic acid], the “CLH, u (HLM)” value in series [2] was found to be 1.0 L/h. In addition, the fraction unbound in series [3] came out at 0.0003. Moreover, the EC50 in series [1] (setting [22]) is 10.1 µM. The molecule also yielded a hepatocyte CLint in [4] of 3.1 ± 0.1 µL/min/1e6 cells. Further, in [5], the Papp A→B was found to be 32 ± 3 ×10⁻⁶ cm/s, the Papp B→A turned out to be 31 ± 2 ×10⁻⁶ cm/s and the efflux ratio turned out to be 1. Further, in [6], the “CLH, u (HHep)” value is 2.3 L/h. The molecule further came in with a logD in series [7] of 1.52 ± 0.02. This molecule registered a microsomal CLint in [8] of 3.9 ± 0.8 µL/min/mg. In series [9], the solubility stood at 930 ± 110 µM (≈ 335 µg/mL).

Regarding `O=C(Nc1cc(F)c(F)cc1C(=O)Nc1ccccc1C(=O)O)c1ccccc1F` [Benzavir-2, 2-(4,5-difluoro-2-(2-fluorobenzamido)benzamido)benzoic acid], the “weight loss or negative behavioural signs” value in series [10] is “No weight loss or negative behavioural signs were observed”. In addition, the solubility in [11] was above 150 µM; in [9] it was 130 ± 10 µM (≈ 53.9 µg/mL). The Fapp came out at 43 ± 15% in series [12] (ip, 2 mg/kg); 120 ± 40% in [12] (ip, 10 mg/kg); 14 ± 5% in [12] (po, 2 mg/kg); 54 ± 18% in series [12] (po, 10 mg/kg). In series [12] (iv), the “iv CL relative to unbound in vitro metabolic CL” value is listed as 2–4 times higher. For the same molecule, in series [2], the “CLH, u (HLM)” value is 1.4 L/h. In addition, the “CLH, u (MLM)” value in [13] stood at 0.15 L/h. Also, the CC50 entry in series [14] is given as “not achieved within these concentrations”. In series [15], the “inhibition of binding or uptake of RVFV virions” value is recorded as “No inhibition of binding or uptake of RVFV virions”. The intrinsic metabolic clearance (microsomal CLint) stood at 3.8 ± 0.9 µL/min/mg in [16] and 3.8 ± 0.4 µL/min/mg in [8]. The fraction unbound in series [17] amounted to 0.0076 ± 0.0002; in series [3] it was 0.0004 ± 0.0002. The Cmax in series [18] (ip, 2 mg/kg) stood at 2.3 µM; in [18] (ip, 10 mg/kg), 28 µM; in [18] (iv, 1 mg/kg), 7.8 µM; in [18] (iv, 2 mg/kg), 7.8 µM; in [18] (iv, 4 mg/kg), 20 µM; in series [18] (po, 2 mg/kg) it was 0.4 µM. In series [18] (po, 10 mg/kg), the peak level (Cmax) was 13 µM. In addition, the Tmax in [18] (ip, 2 mg/kg) was 15 min; in series [18] (ip, 10 mg/kg) it was 15 min; in [18] (po, 2 mg/kg) it was 30 min; in [18] (po, 10 mg/kg) it was 30 min. For the same molecule, the half-life is 84 ± 12 min in series [18] (ip, 2 mg/kg); 96 ± 12 min in series [18] (ip, 10 mg/kg); 42 ± 12 min in series [18] (iv, 1 mg/kg); 42 ± 6 min in series [18] (iv, 2 mg/kg); 42 ± 6 min in series [18] (iv, 4 mg/kg); 180 ± 36 min in [18] (po, 2 mg/kg). Also, the half-life in series [18] (po, 10 mg/kg) was 180 ± 60 min. Besides, the Vd came out at 29 ± 7 L/kg in series [18] (iv, 1 mg/kg); 20 ± 2 L/kg in series [18] (iv, 2 mg/kg); 35 ± 7 L/kg in series [18] (iv, 4 mg/kg). Also, the clearance was 9.33 mL/min in [18] (iv, 1 mg/kg); 6.17 mL/min in series [18] (iv, 2 mg/kg); 11.3 mL/min in series [18] (iv, 4 mg/kg). Moreover, the EC50 in [1] (setting [22]) is 0.6 µM; in [19] (Rift Valley fever virus, A549, 16 h, read-out: EC50, inhibition of production of progeny infectious virus), 600 nM; in series [20] it was 1700 nM. In [4], this molecule yielded a hepatocyte CLint of 4.1 ± 0.4 µL/min/1e6 cells. In addition, the Papp A→B in series [5] was 55 ± 4 ×10⁻⁶ cm/s. In addition, the Papp B→A in [5] turned out to be 45 ± 3 ×10⁻⁶ cm/s. Also, the efflux ratio in [5] amounted to 0.8. The “inhibition of release of viable progeny particles to the supernatant” value in series [19] (1.25 μM) is above 95%. In addition, the “CLH, u (HHep)” value in [6] was 4.0 L/h. The logD in [7] was 1.56 ± 0.01. The “inhibitory effect by time of addition” value in series [21] is “the inhibitory effect on the formation of the fluorescent cell foci was the greatest”.

The EC50 is the concentration at which the effect is half-maximal. A word on the fraction unbound: it is free concentration divided by total concentration. A higher fraction unbound goes with much free substance. The hepatocyte CLint is the capacity of the preparation to metabolise the compound, expressed as a volume cleared per time. Usually Papp A→B stands for how fast a substance crosses the layer from the apical side. Lower therefore signals poor permeation. A word on the Papp B→A: it is the apparent permeability from the basolateral to the apical side of a cell layer. The term efflux ratio denotes a quotient of directional permeabilities that is used to spot active efflux. As usually defined, the logD is lipophilicity at a set pH, counting ionised and neutral species. Read a high logD as a more lipophilic compound. The term microsomal CLint denotes the rate of metabolic loss divided by the concentration. Higher therefore signals rapid turnover. A word on the solubility: it is how much of the substance goes into solution per volume. For orientation: Cmax means the peak of the concentration-time curve. What is called Tmax is the time from dosing to the highest level. Usually half-life stands for how long it takes for the measured level to halve. What is called Vd is a proportionality between amount in the body and measured concentration, not a real space. Low readings indicate little distribution into tissue, high ones wide distribution into tissue. What is called clearance is a measure of how efficiently the substance is removed, as volume per time.
